The values below come from US20110190379A1 (priority 2008, published 2011).

Several values for one entry are separate records, joined by “and”; a condition that tells them apart may be missing. Identical values can stand only once. Like-named read-outs stand apart in the source and are kept apart here.

In test [1] the test system is F. graminearum. The note with it: in vivo.
Another test relates to wheat leaves. The note with it: in vivo.
Test [2] relates to Arabidopsis seed germination. The class given is in vivo.
The subject of test [3] is F. graminearum. The class given is in vivo.
Test [4] deals with F. graminearum. Type of test: in vivo. The source holds these as a separate data set.
Test [5] has as its system F. graminearum. The note with it: in vivo. This is another data set of the same source.

Regarding silver thiosulphate, in the test with F. graminearum [1], the conidial production result was “enhanced resistance” and the disease severity result was “enhanced resistance”.

In the case of `CC1=C[C@H]2O[C@@H]3[C@H](O)C[C@](C)([C@@]2(CO)[C@H](O)C1=O)[C@]31CO1` [DON, deoxynivalenol], in the test on wheat leaves, the “cell death about the inoculation point (trypan blue)” value is recorded as “extensive cell death”; the “size of lesions (DON-induced cell death)” value was 0.127 cm^2 and 0.066 cm^2. For the same molecule, the “effect on seed germination” value in test [2] (FIG. 6) is “inhibits seed germination”.

As for `C=C` [ethylene], the lesion size result in the test on F. graminearum [3] (barley (Golden promise) leaves, ethephon 50 mM or silver thiosulphate 150 μm in agar) is “did not markedly alter”; in the test on F. graminearum [4] (wheat (Hobbit 'sib') leaves, ethephon 50 mM or silver thiosulphate 150 μm in agar) it was “did not markedly alter”. For the same molecule, the conidial production entry in the test on F. graminearum [3] (barley leaves, 7 days, ET P=0.005, reduced ET perception (silver) P=0.043) is on record as “significantly greater”; with F. graminearum [4] (wheat leaves, 7 days, ET P=0.05, reduced ET perception (silver) P=0.003) it was “significantly greater”; in the test with F. graminearum [1], “enhanced susceptibility”. In addition, the disease severity result in the test with F. graminearum [1] is “enhanced susceptibility”.

`C=C1C[C@]23C[C@@]1(O)CC[C@H]2[C@@]12C=C[C@H](O)[C@@](C)(C(=O)O1)[C@H]2[C@@H]3C(=O)O` [GA, Gibberellic Acid]: the “effect on DON inhibition of seed germination” value in test [2] (FIG. 7) is “can reverse the inhibitory effect of DON”.

With silver ions, in the test on F. graminearum [3] (in vivo), the conidial production entry is recorded as “significantly reduced” and the lesion size result was “did not markedly alter”. In the test with F. graminearum [4] (in vivo), the conidial production result is “significantly reduced” and the lesion size result is given as “did not markedly alter”. Moreover, in the test with F. graminearum [5], the “AUDPC versus water treated heads” value was “significantly lower” and the “disease development reduced versus water” value is listed as 12-88%.
